Patent US20220002806A1, “BIOMARKER” (ERBER AKTIENGESELLSCHAFT, priority 2018, published 2022)

Tested on: miRNAs in uterus tissue
Test: Small RNA sequencing (RNA-Seq) of miRNAs in uterus tissue of ZEN-exposed piglets
Assay type: in vivo, pig (Sus scrofa)
Settings: for fold change of ssc-miRNA-542-3p in uterus compared to the control group: highest fold change of the group
Excerpt: Weaned female piglets (sow: Landrace×Large White, boar: Pietrain; 30+/−2 days old) were obtained from a local producer and individually tagged. Piglets were housed in slatted floor pens under controlled environmental conditions. After an acclimatization period of seven days, twenty-four female piglets were selected based on both body weight and vulva size, and allocated to one of four groups (6 animals/group). Piglets received either blank feed (negative control; Ctrl) or feed contaminated with ZEN in three increasing concentrations (ZEN low: 0.17 mg/kg diet; ZEN medium: 1.5 mg/kg diet; ZEN high: 4.6 mg/kg diet). During the 28-day experimental period, each treatment group was given free access to water and the assigned diet. The pigs were observed daily and weighed weekly.
After 28 days of dietary exposure to the experimental diets, pigs were anesthetized by intramuscular injection of ketamine (0.1 mL/kg body weight (b.w.) Narketan®, Vétoquinol GmbH, Ravensburg, Germany) and azaperone (0.03 mL/kg b.w.; Stresnil®, Janssen-Cilag, Neuss, Germany). Subsequently, animals were euthanized by intracardial injection of T61® (Intervet, UnterschleiBheim, Germany; 0.1 ml/kg b.w.). The whole reproductive tract was collected, weighed and examined for any clinical signs. Small pieces of the corpus uteri and the mid-jejunum were dissected, placed into 1 mL of RNAlater, and stored overnight at 4° C. The next day, all the tissue samples were transferred to −80° C. for long-term storage, and until processed for transcriptomics analysis.
miRNA Extraction and Library Preparation: A total of 18 animals was used for investigations on the miRNA profile in the tissues: 6 from Ctrl, 4 from ZEN low, 4 from ZEN medium, and 4 from ZEN high. About 30 mg of tissue from uterus or jejunum was disrupted via a bead-beating step, and the total RNA, including RNA from approximately 18 nucleotides upwards, was extracted and purified with the miRNeasy Mini Kit (Qiagen, Hilden, Germany), following the manufacturer's instructions. The concentration of RNA was first estimated on the Nanodrop (Termo Scientifc NanoDrop 2000, USA), and again with the Agilent 2100 Bioanalyzer (Agilent Technologies, Germany) during the measurement of the RIN for determining the RNA quality. In total 1 μg of total RNA was used for construction of small RNA sequencing libraries using the NEBNext Multiplex SmallRNA Library preparation set for Illumina (New England Biolabs). Adapter-ligated total RNA was reverse transcribed into cDNA, which was used as template for PCR amplification (15 cycles) using Illumina's SR Primer and Index Primers 1-18. Barcoded DNA libraries were purified using the QIAQuick PCR purification protocol (Qiagen, Hilden, Germany) and quantified using the DNA 1000 high sensitivity chip (Agilent Technologies, Germany). Purified samples were pooled at equimolar (50 nM) concentration. Size selection was performed using gel purification to select for insert sizes between 18 and 50 nucleotides. The final multiplexed (n=18) libraries were sequenced on a NextSeq 500 sequencing instrument according to the manufacturer instructions. Raw data was de-multiplexed and FASTQ files for each sample was generated using the bcl2fastq software (Illumina inc.). FASTQ data was checked using the FastQC online tool (http://www.bioinformatics.babraham.ac.uk/projects/fastqc/).
RNA sequencing (RNA-Seq) Bioinformatics Analysis: Total reads were adapter trimmed using Cutadapt and quality filtered (Q-Score >30) using the FastQC tool. Trimmed and quality filtered reads were aligned to reference miRNA sequences in miRBase release 21 (www.mirbase.org; Kozomora and Griffiths-Jones. 2014. Nucleid Acids Research, 42, D68-D73) using bowtie2. Subsequently, reads were mapped against the Sus scrofa genome assembly Sscrofa10.2 as well as Ensembl small non-coding RNA reference databases. Reads were normalized to the total read count per library to generate tags per million (TPM) values. […]

[1] = Ctrl vs ZEN high (4.6 mg/kg diet), 28 days in feed
[2] = Ctrl vs ZEN low (0.17 mg/kg diet), 28 days in feed
[3] = ZEN high group (4.6 mg/kg diet) vs Ctrl, 28 days in feed
[4] = both ZEN medium (1.5 mg/kg diet) and ZEN high (4.6 mg/kg diet) group vs Ctrl, 28 days in feed

Structure (SMILES): C[C@H]1CCCC(=O)CCC/C=C/c2cc(O)cc(O)c2C(=O)O1 [ZEN, (2E,11S)-15,17-dihydroxy-11-methyl-12-oxabicyclo[12.4.0]octadeca-1(18),2,14,16-tetraene-7,13-dione]
- log2 fold change of hsa-miR-135b-5p in uterus [1]: log2 fold change Ctrl vs ZEN high ≤ −1.5,
- log2 fold change of hsa-miR-301a-5p in uterus [1]: log2 fold change Ctrl vs ZEN high ≤ −1.5,
- log2 fold change of put-miR-300 in uterus [1]: ZEN high ≤ −1.5, TPM > 10
- log2 fold change of ssc-miR-22-3p in uterus [1]: Ctrl vs ZEN high ≥ 1.5; TPM > 10
- log2 fold change of ssc-miR-129a in uterus [1]: log2 fold change Ctrl vs ZEN high < −1.5,
- log2 fold change of ssc-miR-135 in uterus [1]: ZEN high ≤ −1.5, TPM > 10
- log2 fold change of ssc-miR-143-5p in uterus [1]: ZEN high ≥ −1.5, TPM > 10
- log2 fold change of ssc-miR-187 in uterus [1]: Crtrl vs ZEN high ≤ −1.5
- log2 fold change of ssc-miR-204 in uterus [1]: log2 fold change Ctrl vs ZEN high ≤ −1.5,
- log2 fold change of ssc-miR-432-5p in uterus [1]: change Ctrl vs ZEN high ≥ 1.5, specificity
- log2 fold change of ssc-miR-493-3p in uterus [1]: log2 fold change Ctrl vs ZEN high ≥ 1.5,
- log2 fold change of ssc-miR-542-3p in uterus [1]: ZEN high ≥ 1.5, TPM > 10
- log2 fold change of ssc-miR-758 in uterus [1]: change Ctrl vs ZEN high ≥ 1.5
- log2 fold change of hsa-miR-135b-5p in uterus [2]: log2 fold change Ctrl vs ZEN low ≤ −0.3,
- log2 fold change of hsa-miR-301a-5p in uterus [2]: log2 fold change Ctrl vs ZEN low ≤ −0.3,
- log2 fold change of ssc-miR-22-3p in uterus [2]: change Ctrl vs ZEN low ≥ 0.3, log2 fold
- log2 fold change of ssc-miR-133a-5p in uterus [2]: change Ctrl vs ZEN low ≥ 0.3, TPM > 10
- log2 fold change of ssc-miR-195 in uterus [2]: change Ctrl vs ZEN low ≥ 0.3, TPM > 10
- log2 fold change of ssc-miR-486 in uterus [2]: change Ctrl vs ZEN low ≥ 0.3, TPM > 10
- log2 fold change of ssc-miR-493-5p in uterus [2]: change Ctrl vs ZEN low ≥ 0.3, TPM > 10,
- log2 fold change of ssc-miR-497 in uterus [2]: change Ctrl vs ZEN low ≥ 0.3, TPM > 10
- log2 fold change of ssc-miR-708-3p in uterus [2]: low ≤ −0.3, TPM > 10
- log2 fold change of ssc-miR-187 in uterus (Ctrl vs ZEN medium (1.5 mg/kg diet), 28 days in feed): vs ZEN medium ≤ −0.3, log2 fold change
- fold change of ssc-miRNA-542-3p in uterus compared to the control group (ZEN high (4.6 mg/kg diet)): +12.6
- fold change of ssc-miRNA-204 in uterus compared to the control group (ZEN high (4.6 mg/kg diet), lowest fold change of the group): −4.1
- Response to ZEN treatment in uterus: hsa-miR-135b-5p [3]: Significantly decreased in ZEN high
- Response to ZEN treatment in uterus: hsa-miR-301a-5p [3]: Significantly decreased in ZEN high
- Response to ZEN treatment in uterus: ssc-miR-22-3p [3]: Significantly increased in ZEN high group,
- Response to ZEN treatment in uterus: ssc-miR-22-5p [3]: Significantly increased in ZEN high group,
- Response to ZEN treatment in uterus: ssc-miR-34a [3]: Significantly increased in ZEN high group
- Response to ZEN treatment in uterus: ssc-miR-125a [3]: Significantly decreased in ZEN high
- Response to ZEN treatment in uterus: ssc-miR-125b [3]: Significantly decreased in ZEN high
- Response to ZEN treatment in uterus: ssc-miR-127 [3]: Significantly increased in ZEN high group
- Response to ZEN treatment in uterus: ssc-miR-129a [3]: Significantly decreased in ZEN high
- Response to ZEN treatment in uterus: ssc-miR-133a-5p [3]: Significantly increased in ZEN high group,
- Response to ZEN treatment in uterus: ssc-miR-135 [3]: Significantly decreased in ZEN high
- Response to ZEN treatment in uterus: ssc-miR-136 [3]: Significantly increased in ZEN high group,
- Response to ZEN treatment in uterus: ssc-miR-140-3p [3]: Significantly increased in ZEN high group,
- Response to ZEN treatment in uterus: ssc-miR-142-3p [3]: Significantly increased in ZEN high group,
- Response to ZEN treatment in uterus: ssc-miR-146b [3]: Significantly decreased in ZEN high
- Response to ZEN treatment in uterus: ssc-miR-182 [3]: Significantly increased in ZEN high group
- Response to ZEN treatment in uterus: ssc-miR-183 [3]: Significantly increased in ZEN high group,
- Response to ZEN treatment in uterus: ssc-miR-195 [3]: Significantly increased in ZEN high group,
- Response to ZEN treatment in uterus: ssc-miR-204 [3]: Significantly decreased in ZEN high
- Response to ZEN treatment in uterus: ssc-miR-369 [3]: Significantly increased in ZEN high group
- Response to ZEN treatment in uterus: ssc-miR-378 [3]: Significantly increased in ZEN high group
- Response to ZEN treatment in uterus: ssc-miR-432-5p [3]: Significantly increased in ZEN high group,
- Response to ZEN treatment in uterus: ssc-miR-455-3p [3]: Significantly increased in ZEN high group,
- Response to ZEN treatment in uterus: ssc-miR-455-5p [3]: Significantly increased in ZEN high group,
- Response to ZEN treatment in uterus: ssc-miR-486 [3]: Significantly increased in ZEN high group,
- Response to ZEN treatment in uterus: ssc-miR-493-3p [3]: Significantly increased in ZEN high group,
- Response to ZEN treatment in uterus: ssc-miR-493-5p [3]: Significantly increased in ZEN high group,
- Response to ZEN treatment in uterus: ssc-miR-708-3p [3]: Significantly decreased in ZEN high
- Response to ZEN treatment in uterus: ssc-miR-758 [3]: Significantly increased in ZEN high group,
- Response to ZEN treatment in uterus: put-miR-300 (ZEN medium (1.5 mg/kg diet) and high (4.6 mg/kg diet) group vs Ctrl, 28 days in feed): Significantly decreased in ZEN medium
- fold change of ssc-miRNA-542-3p in uterus compared to the control group (ZEN medium (1.5 mg/kg diet)): +3.9
- fold change of ssc-miRNA-187 in uterus compared to the control group (ZEN medium (1.5 mg/kg diet), lowest fold change of the group): −3.4
- Response to ZEN treatment in uterus: ssc-miR-1 [4]: Significantly increased in both ZEN
- Response to ZEN treatment in uterus: ssc-miR-143-5p [4]: Significantly increased in both ZEN
- Response to ZEN treatment in uterus: ssc-miR-181c [4]: Significantly decreased in both ZEN
- Response to ZEN treatment in uterus: ssc-miR-187 [4]: Significantly decreased in both ZEN
- Response to ZEN treatment in uterus: ssc-miR-206 [4]: Significantly increased in both ZEN
- Response to ZEN treatment in uterus: ssc-miR-335 [4]: Significantly decreased in both ZEN
- Response to ZEN treatment in uterus: ssc-miR-424-5p [4]: Significantly increased in both ZEN
- Response to ZEN treatment in uterus: ssc-miR-450a [4]: Significantly increased in both ZEN
- Response to ZEN treatment in uterus: ssc-miR-450b-5p [4]: Significantly increased in both ZEN
- Response to ZEN treatment in uterus: ssc-miR-450c-5p [4]: Significantly increased in both ZEN
- Response to ZEN treatment in uterus: ssc-miR-497 [4]: Significantly increased in both ZEN
- Response to ZEN treatment in uterus: ssc-miR-503 [4]: Significantly increased in both ZEN
- Response to ZEN treatment in uterus: ssc-miR-542-3p [4]: Significantly increased in both ZEN
- Response to ZEN treatment in uterus: ssc-miR-7135-3p [4]: Significantly increased in both ZEN
